Several values for one entry are separate records, joined by “and”; a condition that tells them apart may be missing. Equal values may be shown once. Read-outs that look alike come from different tables or passages of the source. Non-standard residues stand in square brackets, D forms with d. Ava = NCCCCC(=O)O
Tests used:
[1] = tested on: CD4+ T cells (CD8+ depleted PBMC of rHA-responsive donors); assay type: cell-based, human
[2] = tested on: TPc9.1 T hybridoma with CH27 antigen presenting cells; experiment: T hybridoma response assay (APC + T hybridoma, HT-2 [3H]TdR uptake readout); assay type: cell-based, murine; conditions: for EC50: serial 1:4 dilutions from 3 μM, 24 hr stimulation
Description: Biological Activities of Hybrid Peptides [00103) The biological activities of the series of peptides listed in Table I were determined with the T hybridoma response assay. A T cell hybridoma which is specific to the hornworm moth cytochrome C epitope IAYLKQATAK (SEQ ID NO: 8) was stimulated with that antigenic peptide or with members of the series of hybrids of the antigenic peptide and the core Ii-Key sequence listed in Table I. The hybrids were joined with spacers of various lengths. The spacers contained either amino acids in the natural sequence of the Ii protein, or methylene (—CH2—) groups of 5-amino-n-valeric acid (ava; 5-aminopentanoic acid). Cultures of an antigen presenting cell and T cell hybridoma were incubated with serial 1:4 dilutions of the antigenic peptide, from 3 μM. Response was determined by measuring tritiated thymidine uptake by an HT-2 culture to which supernatants of the antigenic stimulation culture (24 hr stimulation period) had been transferred (see, Table 2). The endpoint for half maximal response to Hybrid 1, the antigenic peptide, was about 20 nM. The endpoint for half maximal stimulation with Hybrids 5 and 2 was about 50 pM.
For this assay the following components were added at the same time of the primary culture: (a) The hybrid peptide containing the antigenic epitope (Table I); (b) mitomycin C-treated, MHC class II-positive antigen presenting cells (APC) with the MHC class II allele required for binding of the specific antigenic peptide and its presentation to the antigenic peptide-specific T cell hybridoma; (c) MHC class II allele-restricted T cell hybridoma specific for the antigenic peptide and the MHC class II allele restricting its presentation. At the end of the incubation of this primary culture, an aliquot of its supernatant was transferred into a second culture well for incubation with an interleukin-dependent lymphoblastoid cell line. The degree of stimulation of that second indicator cell by the interleukins which had been released from the activated T cell hybridoma in the primary culture was measured by quantitating tritiated thymidine deoxyribose {[^3H]TdR} uptake into the DNA of the HT-2 indicator cells of that second culture.
The hybrids between Ii-Key core sequence LRMK (SEQ ID NO: 3) and PGCC95-104, pigeon cytochrome C 95-104, IAYLKQATAK (SEQ ID NO: 8) are presented by E^k. The peptides were dissolved in phosphate-buffered saline (PBS; 0.01 M sodium phosphate buffer, pH 7.2, 0.1 M NaCl). The solutions were sterilized by filtration. The TPc9.1 T hybridoma is specific for pigeon cytochrome C 81-104 peptide presented on the murine class II MHC allele E^k. The CH27 B cell lymphoma line which expresses H-2^k alleles was used as the antigen presenting cell.
Antigenic peptide-specific T cell activation was measured by the following procedure. Mitomycin C-treated CH27 cells (A^kE^k) APC were generated by incubating 5.×10^6 cells/mL for 20 min at 37° C. with 0.025 mg/mL of mitomycin C (Sigma) in Dulbecco's Modified Eagle's Medium (DMEM)/10 mM N-2 (hydroxyethylpiperazine-N′[2-ethanesulfonic acid] (HEPES), followed by two washes with four volumes of DMEM-5% fetal calf serum (FCS), 10 mM HEPES. T cell hybridomas were irradiated 2200 rads before each assay.
For the primary culture assay, 5×10^4 mitomycin C-treated APC, 5×10^4 T hybridoma cells and serial 1:4 dilutions from 3 uM of the peptides containing antigenic epitopes were cultured at pH 7.2-7.4, in complete DMEM-5% FCS, 10 mM HEPES, 1× nonessential amino acids (Sigma), 1 mM sodium pyruvate, 2 mM L-glutamine. 100 U/mL penicillin G, 100 μg/mL streptomycin sulfate, 5×10^−5 M 2-mercaptoethanol (2-ME). Wells containing only T hybridoma cells (T)+APC were included to monitor for background T cell activation; and wells containing T+APC+antigenic peptide were included to monitor for non-specific T hybridoma activation by each AE101 series peptide. […]

[3] = read-out: endpoint for half maximal stimulation

Substance | in vitro CD4 response, fold above background [1] | immunological response to the antigenic epitope (T cell proliferative response) ([2]; Conc. 0.01 nM) | immunological response to the antigenic epitope (T cell proliferative response) ([2]; Conc. 0.05 nM) | immunological response to the antigenic epitope (T cell proliferative response) ([2]; Conc. 0.18 nM) | immunological response to the antigenic epitope (T cell proliferative response) ([2]; Conc. 0.73 nM) | immunological response to the antigenic epitope (T cell proliferative response) ([2]; Conc. 3 nM) | immunological response to the antigenic epitope (T cell proliferative response) ([2]; Conc. 12 nM) | immunological response to the antigenic epitope (T cell proliferative response) ([2]; Conc. 47 nM) | immunological response to the antigenic epitope (T cell proliferative response) ([2]; Conc. 188 nM) | immunological response to the antigenic epitope (T cell proliferative response) ([2]; Conc. 750 nM) | immunological response to the antigenic epitope (T cell proliferative response) ([2]; Conc. 3000 nM) | EC50 [2, 3] | activity of hybrid (in words) [2] | EC50 ([2]; read-out: endpoint for half maximal response)
KMEDGFLDVWTYNAELL [BEI 73] | 15 fold above background | – | – | – | – | – | – | – | – | – | – | – | – | –
NHFEKIQIIPKSSWSSH [BEI 22] | 4.6 fold above background | – | – | – | – | – | – | – | – | – | – | – | – | –
SNVKNLYDKVRLQLRDN [BEI 78] | 3.3 fold above background | – | – | – | – | – | – | – | – | – | – | – | – | –
Ac-LRMKLPKSIAYLKQATAK-NH2 (SEQ ID NO: 9) [Hybrid 4] | – | 2.5 thousands of counts per minute | 5.8 thousands of counts per minute | 9.1 thousands of counts per minute | 19.2 thousands of counts per minute | 19.0 thousands of counts per minute | 23.1 thousands of counts per minute | 19.5 thousands of counts per minute | 20.8 thousands of counts per minute | 23.3 thousands of counts per minute | 25.2 thousands of counts per minute | – | – | –
IGECPKYVKSNRLVLAT [BEI 54] | 3.9 fold above background and 3.8 fold above background | – | – | – | – | – | – | – | – | – | – | – | – | –
LRMKLPKSAKPIAYLKQATAK [Hybrid 5] | – | 14.3 thousands of counts per minute | 21.3 thousands of counts per minute | 36.7 thousands of counts per minute | 30.1 thousands of counts per minute | 31.4 thousands of counts per minute | 44.6 thousands of counts per minute | 26.2 thousands of counts per minute | 29.1 thousands of counts per minute | 27.5 thousands of counts per minute | 27.3 thousands of counts per minute | ~0.05 nM | – | –
Ac-LRMKLPKSAKPVSKIAYLKQATAK-NH2 (SEQ ID NO: 11) [Hybrid 6] | – | 2.9 thousands of counts per minute | 2.4 thousands of counts per minute | 11.9 thousands of counts per minute | 28.7 thousands of counts per minute | 31.4 thousands of counts per minute | 39.2 thousands of counts per minute | 25.3 thousands of counts per minute | 26.9 thousands of counts per minute | 23.4 thousands of counts per minute | 21.5 thousands of counts per minute | – | sub-optimal activity | –
Ac-LRMK (SEQ ID NO: 3)-5-aminopentanoyl-5-aminopentanoyl-IAYLKQATAK (SEQ ID NO: 8)-NH2 (Ac-LRMK[Ava][Ava]IAYLKQATAK-NH2; SMILES CC[C@H](C)[C@H](NC(=O)CCCCNC(=O)CCCCNC(=O)[C@H](CCCCN)NC(=O)[C@H](CCSC)NC(=O)[C@H](CCCNC(=N)N)NC(=O)[C@H](CC(C)C)NC(C)=O)C(=O)N[C@@H](C)C(=O)N[C@@H](Cc1ccc(O)cc1)C(=O)N[C@@H](CC(C)C)C(=O)N[C@@H](CCCCN)C(=O)N[C@@H](CCC(N)=O)C(=O)N[C@@H](C)C(=O)N[C@H](C(=O)N[C@@H](C)C(=O)N[C@@H](CCCCN)C(N)=O)[C@@H](C)O) [Hybrid 3] | – | 0.6 thousands of counts per minute | 5.3 thousands of counts per minute | 21.6 thousands of counts per minute | 22.3 thousands of counts per minute | 27.9 thousands of counts per minute | 29.5 thousands of counts per minute | 26.2 thousands of counts per minute | 26.2 thousands of counts per minute | 31.7 thousands of counts per minute | 31.9 thousands of counts per minute | – | comparable to those with the natural sequence of Ii protein | –
Ac-LRMK (SEQ ID NO: 3)-5-aminopentanoyl-IAYLKQATAK (SEQ ID NO: 8)-NH2 (Ac-LRMK[Ava]IAYLKQATAK-NH2; SMILES CC[C@H](C)[C@H](NC(=O)CCCCNC(=O)[C@H](CCCCN)NC(=O)[C@H](CCSC)NC(=O)[C@H](CCCNC(=N)N)NC(=O)[C@H](CC(C)C)NC(C)=O)C(=O)N[C@@H](C)C(=O)N[C@@H](Cc1ccc(O)cc1)C(=O)N[C@@H](CC(C)C)C(=O)N[C@@H](CCCCN)C(=O)N[C@@H](CCC(N)=O)C(=O)N[C@@H](C)C(=O)N[C@H](C(=O)N[C@@H](C)C(=O)N[C@@H](CCCCN)C(N)=O)[C@@H](C)O) [Hybrid 2] | – | 3.4 thousands of counts per minute | 19.8 thousands of counts per minute | 31.2 thousands of counts per minute | 38.8 thousands of counts per minute | 30.1 thousands of counts per minute | 21.9 thousands of counts per minute | 20.8 thousands of counts per minute | 27.2 thousands of counts per minute | 23.9 thousands of counts per minute | 25.1 thousands of counts per minute | ~0.05 nM | comparable to those with the natural sequence of Ii protein | –
IAYLKQATAK [Hybrid 1, Ac-IAYLKQATAK—NH2 (SEQ ID NO: 8), reference compound] | – | 0 thousands of counts per minute | 0 thousands of counts per minute | 0 thousands of counts per minute | 4 thousands of counts per minute | 0.4 thousands of counts per minute | 10.9 thousands of counts per minute | 29.5 thousands of counts per minute | 32.4 thousands of counts per minute | 27.8 thousands of counts per minute | 25.2 thousands of counts per minute | – | – | ~20 nM
